# Laboratory results taken from patent US12708601B2, “Mangosteen pericarp extract and process for its preparation thereof” (JUNHONG BIOTECHNOLOGY CO., LTD., priority 2020, dated 2026).
# Tested on: B16F10 melanoma cells
# Test: Cell viability assay (MTT) in B16F10 cells treated with α-MSH with or without aqua choice
# Type: cell-based, mouse
# Details: 100 nM, 24 hours of incubation
# Experimental: The mouse B16F10 melanoma cells were purchased from Bioresource Collection and Research Center (BCRC, Hsinchu, Taiwan) and cultured using Dulbecco's Modified Eagle Medium (DMEM, Gibco, MA, USA) supplemented with 10% fetal bovine serum and 1% antibiotics (100 units/mL penicillin, […], 0.25 μg/mL amphotericin) in a humidified atmosphere of 5% CO2 at 37° C. The control group was untreated with alpha-melanocyte-stimulating hormone (α-MSH) and aquachoice; The different treatment groups were all treated with α-MSH and different doses aquachoice.
# Cells were seeded at a density of […] in 96-well plate for 24 h and then treated with aqua choice at different concentrations for 24 and 48 h. At the end of the treatment, the medium was removed and 100 μL 3-(4,5-Dimethylthiazol-2-yl)-2,5-Diphenyltetrazolium bromide (MTT) solution (Sigma-Aldrich, USA) was treated. MTT reagent was cleanly removed after incubation in a 37° C. incubator for 3 hours, and then 100 μL of DMSO per well was added to dissolve all of the formazan generated in the wells. The result was measured by absorbance at 570 nm with an ELISA reader.
substance,measurement,value
alpha-melanocyte-stimulating hormone [α-MSH],increase in cell viability,~ 1.55 fold
